{"source": "patent US11058661B2", "about": "“Compositions and methods for lowering triglycerides in a subject on concomitant statin therapy and having hsCRP levels of at least about 2 mg/L” (priority 2018, dated 2021)", "key": {"[1]": {"tested_on": "patients with baseline hsCRP ≥2.0 mg/L (safety population)", "test": "ANCHOR post-hoc subgroup: treatment-emergent adverse events", "format": "in vivo, human", "source_text": "The evaluation of safety included monitoring of treatment-emergent adverse events (TEAEs), defined as any AEs that began after the first dose of study medication or that worsened in severity during the double-blind treatment period. TEAEs reported herein included total TEAEs and those occurring in 3% […] of patients in any treatment group of the overall ANCHOR study population (i.e., nausea, diarrhea, nasopharyngitis, and arthralgia). The median difference in percent change from baseline between 4 g per day EPA-E and placebo groups for the primary efficacy variable and additional assessments were estimated with the Hodges-Lehmann method (P values from the Wilcoxon rank-sum test for treatment comparisons) where departures from normality were observed; for normally distributed parameters, an ANCOVA model was used with least square means (LS) and standard error (SE). Missing values were imputed using the last-observation-carried-forward method. For all post hoc analyses, the alpha level for statistical significance was 0.05. Safety analyses were based on the safety population (all randomized patients who received at least one dose of the study drug)."}, "[2]": {"tested_on": "subjects with Age-Associated Memory Impairment (safety population)", "test": "AAMI pilot study: safety and tolerability", "format": "in vivo, human", "experimental": "All randomized subjects that received at least 1 dose of study medication were included in the Safety Population.\nSafety evaluations were based on the safety population. Safety and tolerability were assessed in terms of AEs, vital signs, 12-lead ECG, clinical laboratory data, medical history, and study drug compliance. Safety and tolerability data were presented by treatment group."}}}
{"molecule": "CC/C=C\\C/C=C\\C/C=C\\C/C=C\\C/C=C\\CCCC(=O)OCC", "note": "[Icosapent Ethyl, ethyl eicosapentaenoate]", "values": [{"measurement": "patients with arthralgia", "setting": "[1]; 4 g per day", "result": 2.3, "unit": "%"}, {"measurement": "patients with diarrhea", "setting": "[1]; 4 g per day", "result": 3.8, "unit": "%"}, {"measurement": "patients with nasopharyngitis", "setting": "[1]; 4 g per day", "result": 0.8, "unit": "%"}, {"measurement": "patients with nausea", "setting": "[1]; 4 g per day", "result": 2.3, "unit": "%"}, {"measurement": "patients with TEAEs (irrespective of causality)", "setting": "[1]; 4 g per day, 60 of 131", "result": 45.8, "unit": "%"}, {"measurement": "patients discontinued due to an AE", "setting": "[1]; 4 g per day, subarachnoid hemorrhage, ruptured cerebral aneurysm, brain edema, not considered related", "result": "One"}, {"measurement": "Patients With TEAEs: Any TEAE", "setting": "[1]; 4 g/day, n = 131", "result": "60 (45.8) n (%)"}, {"measurement": "Patients With TEAEs: Arthralgia", "setting": "[1]; 4 g/day, n = 131", "result": "3 (2.3) n (%)"}, {"measurement": "Patients With TEAEs: Diarrhea", "setting": "[1]; 4 g/day, n = 131", "result": "5 (3.8) n (%)"}, {"measurement": "Patients With TEAEs: Nasopharyngitis", "setting": "[1]; 4 g/day, n = 131", "result": "1 (0.8) n (%)"}, {"measurement": "Patients With TEAEs: Nausea", "setting": "[1]; 4 g/day, n = 131", "result": "3 (2.3) n (%)"}, {"measurement": "subjects with nausea Probably Related to the study drug", "setting": "[2]; 1 g", "result": "One"}, {"measurement": "subjects with nausea Possibly Related to the study drug", "setting": "[2]; 1 g cohort", "result": "two"}, {"measurement": "subjects with nausea Possibly Related to the study drug", "setting": "[2]; 2 g cohort", "result": "one"}, {"measurement": "subjects discontinued due to TEAEs", "setting": "[2]; 2 g group", "result": 2, "unit": "subjects"}, {"measurement": "SAE reported", "setting": "[2]; 2 g group, judged unrelated to study drug", "result": "One"}, {"measurement": "subjects with diarrhea Probably Related to the study drug", "setting": "[2]; 4 g", "result": "Another subject"}, {"measurement": "subjects with nausea Possibly Related to the study drug", "setting": "[2]; 4 g cohort", "result": "two"}, {"measurement": "TEAEs reported", "setting": "[2]; all ethyl-EPA treatment groups, 6 weeks", "result": 105, "unit": "events"}, {"measurement": "TEAEs Definitely Related to the study drug", "setting": "[2]; all groups", "result": "No TEAEs"}, {"measurement": "deaths during the study", "setting": "[2]; all groups", "result": "no deaths"}]}
